Data as given in PubChem BioAssay (NCI).
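48-hour exposure; five concentrations; linearly interpolated endpoints. The concentration for 50% growth inhibition is given as GI50. Definition used: TGI = concentration required for complete inhibition of growth.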

Assays:
Test in all cases: NCI-60 cell line screen, 48 h
HCT-116 colon = test system: HCT-116 colon
HT29 colon = test system: HT29 colon
LOX IMVI melanoma = test system: LOX IMVI melanoma
RXF 393 renal = test system: RXF 393 renal
SF-539 CNS = test system: SF-539 CNS
SN12C renal = test system: SN12C renal
NCI-H226 lung = test system: NCI-H226 lung
SR leukemia = test system: SR leukemia
DU-145 prostate = test system: DU-145 prostate
HS 578T breast = test system: HS 578T breast

SMILES: CCOC(=O)NC(=O)c1cn(CCCCCCCCCCC(=O)N2CCN(CCn3cc(C(=O)NC(=O)OCC)c(=O)[nH]c3=O)CC2)c(=O)[nH]c1=O
- TGI (HCT-116 colon): > 100 µM
- TGI (HT29 colon): > 100 µM
- TGI (LOX IMVI melanoma): > 100 µM
- TGI (RXF 393 renal): > 100 µM
- TGI (SF-539 CNS): > 100 µM
- TGI (SN12C renal): > 100 µM

SMILES: CCC[CH2][Sn]([CH2]CCC)([O]C(=O)c1cc(OC)c(OC)c(OC)c1)[O]C(=O)c1cc(OC)c(OC)c(OC)c1
- GI50 (HCT-116 colon): 1.37 µM
- TGI (HCT-116 colon): 2.66 µM
- GI50 (HT29 colon): 1.69 µM
- TGI (HT29 colon): 3.33 µM
- GI50 (LOX IMVI melanoma): 0.695 µM
- TGI (LOX IMVI melanoma): 2.77 µM
- GI50 (NCI-H226 lung): 1.21 µM
- TGI (NCI-H226 lung): 2.59 µM
- GI50 (RXF 393 renal): 0.297 µM
- TGI (RXF 393 renal): 1.12 µM
- GI50 (SF-539 CNS): 0.788 µM
- TGI (SF-539 CNS): 2.12 µM
- GI50 (SN12C renal): 1.51 µM
- TGI (SN12C renal): 3.68 µM

SMILES: CCOC(=O)/C(=C/c1cc(OC)ccc1OC)CC(=O)O
- TGI (HCT-116 colon): > 100 µM
- TGI (HT29 colon): > 100 µM
- TGI (LOX IMVI melanoma): > 100 µM
- TGI (RXF 393 renal): > 100 µM
- TGI (SF-539 CNS): > 100 µM
- TGI (SN12C renal): > 100 µM
- TGI (SR leukemia): > 100 µM

SMILES: OCC1OC(n2ccc3cnccc32)CC1O (stereo unspecified)
- TGI (HCT-116 colon): > 100 µM
- TGI (HT29 colon): > 100 µM
- TGI (LOX IMVI melanoma): > 100 µM
- TGI (NCI-H226 lung): > 100 µM
- TGI (SF-539 CNS): > 100 µM
- TGI (SN12C renal): > 100 µM
- TGI (SR leukemia): > 100 µM

SMILES: Cc1c(NC(=O)CCCl)c(=O)oc2c(C)c3occc(=O)c3cc12
- TGI (DU-145 prostate): > 100 µM
- TGI (HCT-116 colon): > 100 µM
- TGI (HS 578T breast): > 100 µM
- TGI (HT29 colon): > 100 µM
- TGI (RXF 393 renal): > 100 µM
- TGI (SR leukemia): > 100 µM

SMILES: CCCCCCCCC(=O)CCCCCCCCC(=O)O
- TGI (HCT-116 colon): 51 µM
- TGI (HT29 colon): 49.7 µM
- TGI (LOX IMVI melanoma): 30.2 µM
- TGI (NCI-H226 lung): 63.6 µM
- TGI (RXF 393 renal): 67.1 µM
- TGI (SF-539 CNS): 42.5 µM
- TGI (SN12C renal): 76.2 µM
- TGI (SR leukemia): 42.5 µM

SMILES: NC(=O)c1ncn(C2OC(CO)C(O)C2O)n1 (stereo unspecified)
- GI50 (DU-145 prostate): 39.6 µM
- TGI (DU-145 prostate): > 100 µM
- GI50 (HCT-116 colon): 45.1 µM
- TGI (HCT-116 colon): > 100 µM
- GI50 (HS 578T breast): > 100 µM
- TGI (HS 578T breast): > 100 µM
- GI50 (HT29 colon): 14.2 µM
- TGI (HT29 colon): > 100 µM
- GI50 (LOX IMVI melanoma): 53.6 µM
- TGI (LOX IMVI melanoma): > 100 µM
- GI50 (NCI-H226 lung): > 100 µM
- TGI (NCI-H226 lung): > 100 µM
- GI50 (RXF 393 renal): > 100 µM
- TGI (RXF 393 renal): > 100 µM
- GI50 (SN12C renal): 85 µM
- TGI (SN12C renal): > 100 µM
- GI50 (SR leukemia): > 100 µM
- TGI (SR leukemia): > 100 µM

SMILES: C[CH2][Sn]1([CH2]C)[O]C2C(O)OC(CO)C(O)C2[O]1 (stereo unspecified)
- GI50 (DU-145 prostate): 86.8 µM
- TGI (DU-145 prostate): > 100 µM
- GI50 (HCT-116 colon): 77.7 µM
- TGI (HCT-116 colon): > 100 µM
- GI50 (HS 578T breast): 25.9 µM
- TGI (HS 578T breast): > 100 µM
- GI50 (HT29 colon): 65 µM
- TGI (HT29 colon): > 100 µM
- GI50 (NCI-H226 lung): 13.2 µM
- TGI (NCI-H226 lung): 26.1 µM
- GI50 (RXF 393 renal): 27.6 µM
- TGI (RXF 393 renal): > 100 µM
- GI50 (SF-539 CNS): 17.3 µM
- TGI (SF-539 CNS): 32.5 µM
- GI50 (SN12C renal): 4.55 µM
- TGI (SN12C renal): 26.5 µM
- GI50 (SR leukemia): 13.3 µM
- TGI (SR leukemia): 39.6 µM

SMILES: COC(=O)C1C(=O)O[C@@H](c2ccc(OC)cc2)C1C(=O)OC (stereo partly specified)
- TGI (HCT-116 colon): > 100 µM
- TGI (HT29 colon): > 100 µM
- TGI (LOX IMVI melanoma): > 100 µM
- TGI (NCI-H226 lung): > 100 µM
- TGI (RXF 393 renal): > 100 µM
- TGI (SF-539 CNS): > 100 µM
- TGI (SN12C renal): > 100 µM
- TGI (SR leukemia): > 100 µM

SMILES: C=CCOC1=C2CC[C@H](O)[C@@]2(C)CCC1=O
- TGI (HCT-116 colon): > 100 µM
- TGI (HT29 colon): > 100 µM
- TGI (LOX IMVI melanoma): > 100 µM
- TGI (NCI-H226 lung): > 100 µM
- TGI (RXF 393 renal): > 100 µM
- TGI (SF-539 CNS): > 100 µM
- TGI (SN12C renal): > 100 µM
- TGI (SR leukemia): > 100 µM

SMILES: CC1C(=O)CCC1C(Sc1ccccc1)(Sc1ccccc1)Sc1ccccc1 (stereo unspecified)
- TGI (HCT-116 colon): > 100 µM
- TGI (HT29 colon): > 100 µM
- TGI (LOX IMVI melanoma): 68.5 µM
- TGI (RXF 393 renal): 51.3 µM
- TGI (SF-539 CNS): 35.1 µM
- TGI (SN12C renal): 91 µM
